According to the kinase profiling compilation of Christmann-Franck et al. (2016):

How the values were obtained:
Experiment in all cases: KINOMEscan competition binding
Conditions in all cases: compound 1.0 µM
CDK11B (human) = CDK11B (human) (UniProt P21127)
[1] = tested on: PIK3CA (human), P42336 [I800L]
DYRK2 (human) = DYRK2 (human) (UniProt Q92630)
NTRK2 (human) = NTRK2 (human) (UniProt Q16620)
STK33 (human) = STK33 (human) (UniProt Q9BYT3)
FRK (human) = FRK (human) (UniProt P42685)
PIP5K1C (human) = PIP5K1C (human) (UniProt O60331)
Chain of PIP5K1C (human) (O60331 whole entry, looked up): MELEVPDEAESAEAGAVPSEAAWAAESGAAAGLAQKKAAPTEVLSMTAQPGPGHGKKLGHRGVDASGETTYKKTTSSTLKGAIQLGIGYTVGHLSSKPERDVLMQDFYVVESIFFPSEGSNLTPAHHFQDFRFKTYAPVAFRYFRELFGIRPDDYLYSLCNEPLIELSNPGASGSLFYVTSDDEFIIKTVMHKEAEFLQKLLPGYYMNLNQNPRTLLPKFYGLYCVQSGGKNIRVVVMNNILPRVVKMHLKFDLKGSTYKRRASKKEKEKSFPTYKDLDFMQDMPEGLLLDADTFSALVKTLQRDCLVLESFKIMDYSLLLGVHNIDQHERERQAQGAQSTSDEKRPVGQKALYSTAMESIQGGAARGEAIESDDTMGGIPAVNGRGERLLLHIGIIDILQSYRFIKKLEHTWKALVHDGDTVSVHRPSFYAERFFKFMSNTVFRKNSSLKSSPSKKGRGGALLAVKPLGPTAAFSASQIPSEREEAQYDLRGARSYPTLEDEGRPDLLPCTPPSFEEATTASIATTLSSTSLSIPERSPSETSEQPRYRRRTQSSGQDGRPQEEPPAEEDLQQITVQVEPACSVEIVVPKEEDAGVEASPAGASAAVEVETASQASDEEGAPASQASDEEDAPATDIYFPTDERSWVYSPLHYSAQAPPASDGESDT

SRC (human) = SRC (human) (UniProt P12931)
PRKAA1 (human) = PRKAA1 (human) (UniProt Q13131)
FGR (human) = FGR (human) (UniProt P09769)
PRKCI (human) = PRKCI (human) (UniProt P41743)
Chain of PRKCI (human) (P41743 whole entry, looked up): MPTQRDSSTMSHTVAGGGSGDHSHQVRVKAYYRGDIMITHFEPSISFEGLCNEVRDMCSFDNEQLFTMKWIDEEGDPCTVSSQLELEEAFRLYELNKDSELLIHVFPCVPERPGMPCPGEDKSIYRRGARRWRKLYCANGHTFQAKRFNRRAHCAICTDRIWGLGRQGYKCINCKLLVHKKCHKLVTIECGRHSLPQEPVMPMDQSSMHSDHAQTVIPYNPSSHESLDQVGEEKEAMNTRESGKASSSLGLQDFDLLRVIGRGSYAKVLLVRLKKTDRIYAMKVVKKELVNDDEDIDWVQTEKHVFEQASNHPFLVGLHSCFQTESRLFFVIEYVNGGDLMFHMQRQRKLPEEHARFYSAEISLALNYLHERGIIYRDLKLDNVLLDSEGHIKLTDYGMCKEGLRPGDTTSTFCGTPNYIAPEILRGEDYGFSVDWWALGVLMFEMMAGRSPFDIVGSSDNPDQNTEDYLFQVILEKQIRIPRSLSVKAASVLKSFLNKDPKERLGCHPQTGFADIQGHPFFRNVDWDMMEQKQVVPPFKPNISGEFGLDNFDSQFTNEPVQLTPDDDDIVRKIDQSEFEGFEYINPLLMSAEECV

STK38 (human) = STK38 (human) (UniProt Q15208)
TLK1 (human) = TLK1 (human) (UniProt Q9UKI8)
TBK1 (human) = TBK1 (human) (UniProt Q9UHD2)
GSK3A (human) = GSK3A (human) (UniProt P49840)
MAP2K2 (human) = MAP2K2 (human) (UniProt P36507)
Chain of MAP2K2 (human) (P36507 whole entry, looked up): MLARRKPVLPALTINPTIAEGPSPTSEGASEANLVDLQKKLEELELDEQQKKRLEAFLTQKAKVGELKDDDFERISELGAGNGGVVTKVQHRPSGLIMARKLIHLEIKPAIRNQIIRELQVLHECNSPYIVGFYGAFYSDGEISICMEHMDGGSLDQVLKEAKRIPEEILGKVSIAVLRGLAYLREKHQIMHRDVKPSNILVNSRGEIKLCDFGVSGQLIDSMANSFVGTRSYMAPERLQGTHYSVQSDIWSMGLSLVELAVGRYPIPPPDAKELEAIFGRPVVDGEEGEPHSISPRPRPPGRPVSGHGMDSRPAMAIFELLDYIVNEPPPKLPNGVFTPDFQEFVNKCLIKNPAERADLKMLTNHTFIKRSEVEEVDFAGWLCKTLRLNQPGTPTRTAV

MAP3K2 (human) = MAP3K2 (human) (UniProt Q9Y2U5)
SIK1 (human) = SIK1 (human) (UniProt P57059)
PAK1 (human) = PAK1 (human) (UniProt Q13153)
ROCK2 (human) = ROCK2 (human) (UniProt O75116)
SRMS (human) = SRMS (human) (UniProt Q9H3Y6)
Chain of SRMS (human) (Q9H3Y6 whole entry, looked up): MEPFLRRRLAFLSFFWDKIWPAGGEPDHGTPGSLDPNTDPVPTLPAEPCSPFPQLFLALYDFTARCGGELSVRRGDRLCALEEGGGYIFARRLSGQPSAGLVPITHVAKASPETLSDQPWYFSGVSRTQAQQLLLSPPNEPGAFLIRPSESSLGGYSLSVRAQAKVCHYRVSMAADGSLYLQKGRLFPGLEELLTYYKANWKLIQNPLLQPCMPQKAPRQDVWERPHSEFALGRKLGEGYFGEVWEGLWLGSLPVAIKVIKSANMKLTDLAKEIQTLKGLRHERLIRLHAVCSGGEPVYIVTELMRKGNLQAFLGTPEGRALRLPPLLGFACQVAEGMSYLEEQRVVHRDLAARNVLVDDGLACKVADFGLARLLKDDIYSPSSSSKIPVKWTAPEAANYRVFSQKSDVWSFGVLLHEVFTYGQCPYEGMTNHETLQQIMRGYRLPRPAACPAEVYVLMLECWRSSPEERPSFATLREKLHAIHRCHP

MAP3K12 (human) = MAP3K12 (human) (UniProt Q12852)
Chain of MAP3K12 (human) (Q12852 whole entry, looked up): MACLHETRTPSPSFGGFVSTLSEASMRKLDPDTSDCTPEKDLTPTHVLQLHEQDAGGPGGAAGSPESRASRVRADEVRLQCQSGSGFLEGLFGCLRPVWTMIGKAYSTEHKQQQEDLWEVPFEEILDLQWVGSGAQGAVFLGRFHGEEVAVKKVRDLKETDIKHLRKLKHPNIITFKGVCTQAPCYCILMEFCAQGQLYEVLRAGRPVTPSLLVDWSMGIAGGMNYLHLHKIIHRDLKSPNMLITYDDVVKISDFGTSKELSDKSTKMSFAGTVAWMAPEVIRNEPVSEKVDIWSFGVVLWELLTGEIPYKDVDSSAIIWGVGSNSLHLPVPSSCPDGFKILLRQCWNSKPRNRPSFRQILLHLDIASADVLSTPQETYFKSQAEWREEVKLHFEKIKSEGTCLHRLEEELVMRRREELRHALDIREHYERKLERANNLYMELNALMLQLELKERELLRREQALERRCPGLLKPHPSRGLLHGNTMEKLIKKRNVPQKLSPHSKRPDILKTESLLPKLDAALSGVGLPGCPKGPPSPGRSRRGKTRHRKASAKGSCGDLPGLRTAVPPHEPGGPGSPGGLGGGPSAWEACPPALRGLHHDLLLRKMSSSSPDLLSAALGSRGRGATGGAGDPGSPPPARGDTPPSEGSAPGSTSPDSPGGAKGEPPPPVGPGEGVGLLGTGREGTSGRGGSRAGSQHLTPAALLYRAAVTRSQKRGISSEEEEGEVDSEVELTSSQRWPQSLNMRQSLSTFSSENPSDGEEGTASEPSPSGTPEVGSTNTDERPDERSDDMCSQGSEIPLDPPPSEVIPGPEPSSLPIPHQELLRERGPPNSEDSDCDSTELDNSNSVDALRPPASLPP

STK10 (human) = STK10 (human) (UniProt O94804)
MKNK1 (human) = MKNK1 (human) (UniProt Q9BUB5)
[2] = tested on: EGFR (human), P00533 [747-751 del / S ins]
STK38L (human) = STK38L (human) (UniProt Q9Y2H1)
TYRO3 (human) = TYRO3 (human) (UniProt Q06418)
Chain of TYRO3 (human) (Q06418 whole entry, looked up): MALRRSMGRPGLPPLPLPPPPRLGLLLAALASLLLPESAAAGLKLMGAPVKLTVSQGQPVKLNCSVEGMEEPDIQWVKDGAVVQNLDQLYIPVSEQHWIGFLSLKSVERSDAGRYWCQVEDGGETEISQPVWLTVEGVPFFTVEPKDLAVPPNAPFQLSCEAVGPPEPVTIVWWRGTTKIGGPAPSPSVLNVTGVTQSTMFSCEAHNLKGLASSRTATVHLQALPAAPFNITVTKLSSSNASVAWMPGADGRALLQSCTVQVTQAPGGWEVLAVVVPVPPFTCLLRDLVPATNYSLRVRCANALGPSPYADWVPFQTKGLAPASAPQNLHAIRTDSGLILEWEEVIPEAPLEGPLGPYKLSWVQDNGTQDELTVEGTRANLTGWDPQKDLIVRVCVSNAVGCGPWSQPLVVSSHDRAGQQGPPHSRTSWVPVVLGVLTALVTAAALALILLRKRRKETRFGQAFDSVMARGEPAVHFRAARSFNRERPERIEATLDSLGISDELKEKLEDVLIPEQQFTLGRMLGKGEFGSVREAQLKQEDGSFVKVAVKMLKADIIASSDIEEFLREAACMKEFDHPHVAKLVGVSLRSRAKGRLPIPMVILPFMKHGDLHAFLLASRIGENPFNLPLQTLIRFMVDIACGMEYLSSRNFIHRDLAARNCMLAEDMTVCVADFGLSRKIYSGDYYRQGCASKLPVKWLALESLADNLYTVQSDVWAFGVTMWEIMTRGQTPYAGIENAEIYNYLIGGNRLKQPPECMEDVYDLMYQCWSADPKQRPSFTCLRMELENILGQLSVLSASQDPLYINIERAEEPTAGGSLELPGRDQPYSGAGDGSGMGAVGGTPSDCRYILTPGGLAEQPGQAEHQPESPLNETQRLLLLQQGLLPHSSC

STK39 (human) = STK39 (human) (UniProt Q9UEW8)
MARK1 (human) = MARK1 (human) (UniProt Q9P0L2)
RPS6KA6 KD2 (human) = RPS6KA6 KD2 (human) (UniProt Q9UK32)
PLK4 (human) = PLK4 (human) (UniProt O00444)
RIPK4 (human) = RIPK4 (human) (UniProt P57078)
PIM1 (human) = PIM1 (human) (UniProt P11309)
CDK17 (human) = CDK17 (human) (UniProt Q00537)
Chain of CDK17 (human) (Q00537 whole entry, looked up): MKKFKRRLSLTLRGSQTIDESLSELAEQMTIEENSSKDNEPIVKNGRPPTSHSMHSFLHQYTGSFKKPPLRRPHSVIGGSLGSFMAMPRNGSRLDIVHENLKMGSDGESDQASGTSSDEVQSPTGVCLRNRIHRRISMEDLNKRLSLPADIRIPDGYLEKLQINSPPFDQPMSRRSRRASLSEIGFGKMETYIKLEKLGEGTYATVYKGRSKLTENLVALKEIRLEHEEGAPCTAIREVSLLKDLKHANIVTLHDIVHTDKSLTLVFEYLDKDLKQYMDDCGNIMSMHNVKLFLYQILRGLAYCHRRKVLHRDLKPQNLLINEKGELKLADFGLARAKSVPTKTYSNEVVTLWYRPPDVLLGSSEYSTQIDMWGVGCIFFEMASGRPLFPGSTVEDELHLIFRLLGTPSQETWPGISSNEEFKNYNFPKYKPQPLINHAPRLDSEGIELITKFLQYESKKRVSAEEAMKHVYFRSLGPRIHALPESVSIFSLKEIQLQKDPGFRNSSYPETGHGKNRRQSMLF

CDC2L2 (human) = CDC2L2 (human) (UniProt Q9UQ88)
SLK (human) = SLK (human) (UniProt Q9H2G2)
HIPK2 (human) = HIPK2 (human) (UniProt Q9H2X6)
CAMK2G (human) = CAMK2G (human) (UniProt Q13555)
RPS6KA1 KD1 (human) = RPS6KA1 KD1 (human) (UniProt Q15418)
PRKACA (human) = PRKACA (human) (UniProt P17612)
PRPF4B (human) = PRPF4B (human) (UniProt Q13523)
STK32C (human) = STK32C (human) (UniProt Q86UX6)

Chain of DYRK2 (human) (Q92630 whole entry, looked up): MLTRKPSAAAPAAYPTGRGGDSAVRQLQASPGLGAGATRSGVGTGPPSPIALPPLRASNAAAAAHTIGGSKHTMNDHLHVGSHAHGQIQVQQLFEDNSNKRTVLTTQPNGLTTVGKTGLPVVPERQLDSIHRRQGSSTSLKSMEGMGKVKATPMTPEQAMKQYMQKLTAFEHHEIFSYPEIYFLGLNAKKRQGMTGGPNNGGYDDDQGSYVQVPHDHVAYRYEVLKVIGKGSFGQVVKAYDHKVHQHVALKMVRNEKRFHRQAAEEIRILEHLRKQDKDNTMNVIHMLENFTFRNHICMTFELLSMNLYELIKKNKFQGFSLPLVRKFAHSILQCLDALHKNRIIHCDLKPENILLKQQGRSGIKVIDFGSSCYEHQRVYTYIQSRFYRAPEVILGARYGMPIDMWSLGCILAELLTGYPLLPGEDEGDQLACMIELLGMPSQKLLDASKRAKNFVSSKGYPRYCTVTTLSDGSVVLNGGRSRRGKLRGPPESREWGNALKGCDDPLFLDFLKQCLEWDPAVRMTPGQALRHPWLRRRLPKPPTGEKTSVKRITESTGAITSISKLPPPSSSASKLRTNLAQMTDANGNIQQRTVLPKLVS

SMILES: CN(C)C/C=C/C(=O)Nc1cccc(C(=O)Nc2ccc(Nc3nccc(/C(C#N)=C4\Nc5ccccc5S4)n3)cc2)c1
- kinase still bound, per cent of control (CDK11B (human)): 70%
- kinase still bound, per cent of control [1]: 100%
- kinase still bound, per cent of control (DYRK2 (human)): 15%
- kinase still bound, per cent of control (NTRK2 (human)): 100%
- kinase still bound, per cent of control (STK33 (human)): 100%
- kinase still bound, per cent of control (FRK (human)): 100%
- kinase still bound, per cent of control (PIP5K1C (human)): 100%
- kinase still bound, per cent of control (SRC (human)): 100%
- kinase still bound, per cent of control (PRKAA1 (human)): 100%
- kinase still bound, per cent of control (FGR (human)): 100%
- kinase still bound, per cent of control (PRKCI (human)): 100%
- kinase still bound, per cent of control (STK38 (human)): 100%
- kinase still bound, per cent of control (TLK1 (human)): 100%
- kinase still bound, per cent of control (TBK1 (human)): 100%
- kinase still bound, per cent of control (GSK3A (human)): 59%
- kinase still bound, per cent of control (MAP2K2 (human)): 100%
- kinase still bound, per cent of control (MAP3K2 (human)): 100%
- kinase still bound, per cent of control (SIK1 (human)): 100%
- kinase still bound, per cent of control (PAK1 (human)): 100%
- kinase still bound, per cent of control (ROCK2 (human)): 100%
- kinase still bound, per cent of control (SRMS (human)): 100%
- kinase still bound, per cent of control (MAP3K12 (human)): 100%
- kinase still bound, per cent of control (STK10 (human)): 86%
- kinase still bound, per cent of control (MKNK1 (human)): 100%
- kinase still bound, per cent of control [2]: 85%
- kinase still bound, per cent of control (STK38L (human)): 100%
- kinase still bound, per cent of control (TYRO3 (human)): 100%
- kinase still bound, per cent of control (STK39 (human)): 100%
- kinase still bound, per cent of control (MARK1 (human)): 100%
- kinase still bound, per cent of control (RPS6KA6 KD2 (human)): 100%
- kinase still bound, per cent of control (PLK4 (human)): 97%
- kinase still bound, per cent of control (RIPK4 (human)): 100%
- kinase still bound, per cent of control (PIM1 (human)): 100%
- kinase still bound, per cent of control (CDK17 (human)): 100%
- kinase still bound, per cent of control (CDC2L2 (human)): 39%
- kinase still bound, per cent of control (SLK (human)): 8.6%
- kinase still bound, per cent of control (HIPK2 (human)): 60%
- kinase still bound, per cent of control (CAMK2G (human)): 100%
- kinase still bound, per cent of control (RPS6KA1 KD1 (human)): 100%
- kinase still bound, per cent of control (PRKACA (human)): 88%
- kinase still bound, per cent of control (PRPF4B (human)): 100%
- kinase still bound, per cent of control (STK32C (human)): 100%
